{"source": "patent EP0067913B1", "about": "“Composition for the treatment of acne” (RUSH-HAMPTON INDUSTRIES, INC., priority 1981, dated 1982)", "key": {"[1]": {"test_system": "Pityrosporum ovale ATCC 14521", "assay": "Fungicidal activity test in corn oil medium (Sabouraud Dextrose broth and corn oil)", "type": "cell-based", "settings": "concentrations of 200 ppm or greater in the upper oil layer; 37°C, aerobic conditions, 7 days", "protocol": "This organism is cultured in a corn oil medium prepared with Sabouraud Dextrose broth and Mazola@ Corn Oil. Solutions of naringenin and this broth were made in which the concentration of naringenin in the upper oil layer was 200 ppm, 400 ppm, 600 ppm, and 800 ppm. Three solutions of each concentration were tested. Each tube was inoculated with a loop full of the test organism and incubated at 37°C under aerobic conditions for 7 days."}, "[2]": {"assay": "Water solubility (qualitative comparison)", "type": "physicochemical", "settings": "qualitative comparison with partially hydrolyzed naringin"}}, "data": [{"smiles": "O=C1C[C@@H](c2ccc(O)cc2)Oc2cc(O)cc(O)c21", "note": "[naringenin]", "values": [{"measurement": "effect on the growth of Pityrosporum ovale ATCC 14521", "setting": "[1]", "result": "severely retarded the growth"}, {"measurement": "water solubility", "setting": "[2]", "result": "less than those of partially hydrolyzed naringin"}]}]}
